Assay results reported in publication PMC7088272 (Biotechnology Letters, 2016).

Key:
ZIKV NS2B-NS3^pro [1] = target: T1, ZIKV NS2B-NS3^pro (Zika virus, UniProt A0A024B7W1); test: FRET-based inhibition assay of ZIKV NS2B-NS3pro protease; assay type: biochemical; details: for inhibition at 100 µM: pH 7, 100 µM inhibitor
ZIKV NS2B-NS3^pro [2] = target: T1, ZIKV NS2B-NS3^pro; test: Inhibitor kinetic study; assay type: biochemical
[3] = 26 μM FRET substrate, 8.7 μg enzyme, 50 mM Tris/HCl pH 7.0, 25 °C, 11 min

T1 sequence (A0A024B7W1 1421-1469): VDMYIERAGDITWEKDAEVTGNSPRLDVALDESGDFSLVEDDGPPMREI
T1 sequence (A0A024B7W1 1503-1688): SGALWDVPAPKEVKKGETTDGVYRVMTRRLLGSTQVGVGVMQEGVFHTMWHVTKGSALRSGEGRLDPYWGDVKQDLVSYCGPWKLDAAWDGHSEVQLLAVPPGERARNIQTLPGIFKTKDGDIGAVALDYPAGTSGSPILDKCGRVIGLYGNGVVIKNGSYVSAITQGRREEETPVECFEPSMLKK

Structure (SMILES)	IC50 (ZIKV NS2B-NS3^pro [1]) [µM]	inhibition at 100 µM (ZIKV NS2B-NS3^pro [1]; [3]) [%]	further results
O=c1c(O[C@@H]2O[C@H](CO)[C@@H](O)[C@H](O)[C@H]2O)c(-c2ccc(O)cc2)oc2cc(O)cc(O)c12 [Astragalin]	112 ± 5.5	> 40	–
O=C(O[C@@H]1Cc2c(O)cc(O)cc2O[C@@H]1c1ccc(O)c(O)c1)c1cc(O)c(O)c(O)c1 [Epicatechin gallate]	–	> 40	–
O=C(O[C@@H]1Cc2c(O)cc(O)cc2O[C@H]1c1cc(O)c(O)c(O)c1)c1cc(O)c(O)c(O)c1 [Gallocatechin gallate]	99 ± 1.8	> 40	–
O=c1cc(-c2ccc(O)c(O)c2)oc2cc(O)cc(O)c12 [Luteolin]	53 ± 1.3	> 40	inhibition activity compared to chrysin (ZIKV NS2B-NS3^pro [1]; ratio of inhibition at 100 µM): 2.8 times
O=c1c(O)c(-c2cc(O)c(O)c(O)c2)oc2cc(O)cc(O)c12 [Myricetin]	–	–	Inhibition (%) (ZIKV NS2B-NS3^pro [1]; 100 µM inhibitor, 26 μM FRET substrate, 8.7 μg enzyme, 50 mM Tris/HCl pH 7.0, 25 °C, 11 min): more than 40%; Ki (ZIKV NS2B-NS3^pro [2]): 8.9 ± 1.9 µM; inhibition type (ZIKV NS2B-NS3^pro [2]; Lineweaver–Burk and Dixon plots, inhibitor 0–50 µM, substrate 10–50 µM): mixed type
C[C@@H]1O[C@@H](O[C@H]2[C@H](Oc3cc(O)c4c(c3)O[C@H](c3ccc(O)cc3)CC4=O)O[C@H](CO)[C@@H](O)[C@@H]2O)[C@H](O)[C@H](O)[C@H]1O [Naringin]	–	–	inhibitory activity against ZIKV NS2B-NS3^pro (in words) (ZIKV NS2B-NS3^pro [1]; 100 µM inhibitor): weak inhibitory activities
C[C@@H]1O[C@@H](OC[C@H]2O[C@@H](Oc3c(-c4ccc(O)c(O)c4)oc4cc(O)cc(O)c4c3=O)[C@H](O)[C@@H](O)[C@@H]2O)[C@H](O)[C@H](O)[C@H]1O [Rutin]	–	> 40	–
